Measured values taken from patent US11073508B2, “Rapid conductance based ion channel analysis” (Arizona Board of Regents on Behalf of the University of …, priority 2017, dated 2021).

Columns and labels:
Format in all cases: biochemical
[1] = test system: Gramicidin A (gA) channels in DPhPC BLM; assay: Fast solution exchange with gA-functionalized BLMs, conductance protocol F (Example 1); settings: gA-functionalized BLM on 3 μm aperture pipette; Ca^2+ switched from 0 to 1 M
Protocol: (§1) All electrophysiological measurements were performed using a HEKA Electronik EPC-10 Double patch clamp amplifier (Germany) using PatchMaster software (v2.73). Data were digitized at 20 kHz and filtered at 1 kHz, unless otherwise specified. BLM conductance was measured using several multi-step voltage protocols. All protocols were evaluated against a 21-point reference protocol that applied 50 ms potential pulses ranging from −100 to +100 mV, in 10 mV intervals. Each pulse was preceded by a 10 ms rest at a holding potential of 0 mV and followed by a 1000 ms rest to ensure the bilayer capacitance was fully discharged before proceeding to the next potential step. The slope of the i-V curve is the BLM conductance, GBLM (pA/mV), and the resistance, RBLM, is (GBLM)^−1.
A 1 mg/mL stock solution of gA in EtOH was prepared and stored at 4° C. for up to two weeks. […]
A dual-port perfusion apparatus was fabricated from a two-barrel theta capillary. […] The 10-90% response time of the solution exchange was determined by laterally translating the theta capillary tip to alternately deliver recording buffer and Ca^2+ solution to the pipette tip, which was positioned ˜200 μm from the outlet of the theta capillary tip, while monitoring the change in current through the pipette aperture at a holding potential of −20 mV. […]

[2] = test system: Gramicidin A (gA) channels in DPhPC BLM; assay: High speed solution exchange with gA-functionalized BLM, sub-ms conductance protocol (Example 2); settings: recording buffer switched to recording buffer + 1 M Ca^2+, 0.9 ms protocol, 10 kHz filter
From the text: Electrophysiological data was acquired with a HEKA EPC-10 Single patch clamp amplifier and digitized with Patchmaster software (v. 2.73). Single channel recordings were obtained at a −100 mV holding voltage, digitized at 20 kHz and filtered at 1 kHz, unless otherwise stated. Sub-millisecond conductance measurements were collected at 200 kHz and filtered at 10 kHz. Noise values were obtained from the Noise Panel present in Patchmaster software which measures instrument noise through the amplifier's 4-pole, low-pass Bessel filter.
Membrane conductance values were evaluated against a 21-point reference protocol that applied a 50 ms voltage pulses ranging from −100 to +100 mV, in 10 mV intervals. Each pulse was preceded by a 10 ms rest at a holding voltage of 0 mV and followed by a 1000 ms rest (0 mV) to ensure the bilayer capacitance was fully discharged before proceeding to the next voltage step. […]
Fast solution switching experiments were performed with a High Speed Solution Exchange-2/3 system (ALA Scientific, New York), A BLM pipette was positioned about 1 mm away and equidistant from the outflow of two tubes approximately perpendicular from one another. […] The solution composition perfusing across the BLM pipette was rapidly switched using a solenoid pinch valve and the membrane conductance was measured using the patch clamp amplifier. Membrane conductance was assessed as described above. […]

[3] = Single channel recording of gA in DPhPC BLM
Protocol: as §1
A 1 mg/mL stock solution of gA in EtOH was prepared and stored at 4° C. for up to two weeks. For use, the solution was diluted to 1 μg/mL in EtOH and 0.5-1 μL aliquots were injected into the bath solution at a position ca. 5 mm from the pipette tip while monitoring current at a holding potential of −100 mV. […]
Gramicidin A dimerizes in lipid bilayers to form non-selective, cation-permeable ICs and is widely used as a model IC for illustrating BLM formation. […] The conductance of the BLM was measured using protocols A and E with recording buffer on both sides of the membrane. […]

| Compound | decrease in normalized BLM conductance using the mean of a 1 s window before and after solution exchange [1] [%] | decrease in membrane conductance upon application of 1 M Ca^2+ [2] [%] | increase in membrane conductance by an individual gA ion channel ([3]; 1 M KCl solutions) [fA/mV] | current contributed by each gA channel ([3]; holding potential −100 mV, recording buffer 1 M KCl on both sides, DPhPC BLM, 3 μm aperture) [pA] |
| --- | --- | --- | --- | --- |
| [Ca+2].[Cl-].[Cl-] [Ca^2+, CaCl2] | 81.9±13.5 | ~60 | – | – |
| Gramicidin A [gA] | – | – | ~20 | ~2 |
